Measured values: US20220168317A1, “Therapeutic Thiazine Dye Compositions and Methods of Use” (AB BioInnovations, Inc., priority 2020, published 2022)

Assays:
Conditions in all cases: final concentration in well; CAMHB, 37° C., 24 hours; single compound
[1] = test system: Klebsiella pneumoniae ATCC 13883
Procedure: Each dilution series was prepared using Cation-Adjusted Muller Hinton broth (CAMHB).
(§1) For each dilution series, 0.1 ml of each dilution, in order from most concentrated to least concentrated, was placed into a separate well of a 96-well tissue-culture plate. Select bacterial species were diluted in CAMHB so that 0.1 ml contained approximately 1×10^6 bacteria per ml. […] The tissue-culture plates were incubated at 37° C. for 24 hours.
(§2) After 24 hours, each well was visually assessed using a light microscope for bacterial growth.

[2] = test system: Staphylococcus aureus ATCC BAA-44
Procedure: (§3) Similarly, starting with a 1% methylene blue solution, a 2-fold serial dilution series was generated consisting of 24 members having a methylene blue concentration ranging from 1% to 1.1920929×10^−7%. Each dilution series was prepared using Cation-Adjusted Muller Hinton broth (CAMHB).
as §1, §2
(§4) 0.1 ml of each dilution, in order from most concentrated to least concentrated, was placed into an individual well of a 96-well tissue-culture plate. Select bacterial species were diluted in CAMHB so that 0.1 ml contained approximately 1×10^6 bacteria per ml. […] The tissue-culture plates were incubated at 37° C. for 24 hours.
(§5) After 24 hours, each well was visually assessed using a light microscope for bacterial growth. The dilution with the lowest concentrations capable of inhibiting bacterial growth was defined as the MIC.

[3] = test system: Pseudomonas aeruginosa ATCC 27853
Procedure: as §3, §1, §2, §4, §5

SMILES | MIC [1] | MIC [2] | MIC [3]
CN(C)c1ccc2nc3ccc(=[N+](C)C)cc-3sc2c1 [Methylene Blue, 3,7-bis(dimethylamine)-phenothiazin-5-ium chloride] | 0.25% | 0.003906% | 0.5%
O=P(O)(O)O [Phosphoric Acid, phosphoric acid] | 0.332% | 0.332% | 0.332%
